{
  "source": "paper PMC3711766",
  "about": "(The Journal of neuroscience : the official journal of the …, 2013)",
  "key": {"FLAG-MOR [1]": {"biological_target": "T1, FLAG-MOR (Mus musculus, UniProt P42866)", "T1 sequence (P42866 whole entry)": "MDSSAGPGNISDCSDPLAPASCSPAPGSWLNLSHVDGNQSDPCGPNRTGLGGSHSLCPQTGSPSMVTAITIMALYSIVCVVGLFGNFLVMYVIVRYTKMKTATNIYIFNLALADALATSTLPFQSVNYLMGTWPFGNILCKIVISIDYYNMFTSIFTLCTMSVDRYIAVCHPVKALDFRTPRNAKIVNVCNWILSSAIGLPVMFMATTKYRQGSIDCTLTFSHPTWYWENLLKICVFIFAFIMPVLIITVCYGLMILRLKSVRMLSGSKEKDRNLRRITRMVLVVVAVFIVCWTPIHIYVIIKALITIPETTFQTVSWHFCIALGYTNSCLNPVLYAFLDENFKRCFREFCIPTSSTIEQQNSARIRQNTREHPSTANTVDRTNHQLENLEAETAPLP", "format": "binding"}, "FLAG-MOR [2]": {"biological_target": "T1, FLAG-MOR", "format": "cell-based", "conditions": "ME 1 µM, 5 sec; pertussis toxin 100 ng/mL overnight"}, "FLAG-MOR [3]": {"biological_target": "T1, FLAG-MOR", "format": "binding", "remark": "listed apart in the source"}, "FLAG-MOR [4]": {"biological_target": "T1, FLAG-MOR", "assay": "Steady state binding of derm A594 in live FLAG-MOR HEK 293 cells"}, "FLAG-MOR [5]": {"biological_target": "T1, FLAG-MOR", "assay": "Binding and unbinding kinetics of derm A594 in live FLAG-MOR HEK 293 cells", "conditions": "for average time constant of association: derm A594 30 nM"}, "FLAG-MOR [6]": {"biological_target": "T1, FLAG-MOR", "format": "binding", "conditions": "derm A594 200 nM; ME 30 µM 2 hrs, then ME 3 µM pre pulse"}},
  "note": "Where two headings read alike, the source gives them in different places. Where a SMILES comes first, the peptide text is derived from it. [ ]: non-standard residue; d: D form. The star is where a group is joined. X1 = CN1c2cc3c(cc2C(CS(=O)(=O)[O-])=CC1(C)C)C(c1ccc(C(=O)NCCCCCN2C(=O)CC(*)C2=O)cc1C(=O)O)=c1cc2c(cc1O3)=[N+](C)C(C)(C)C=C2CS(=O)(=O)O",
  "data": [
    {"compound": "COc1ccc2c3c1O[C@H]1C(=O)CC[C@@]4(O)[C@@H](C2)N(C)CC[C@]314", "note": "[oxycodone]", "values": [
      {"measurement": "fraction derm A594 remaining after 3 min", "setting": "FLAG-MOR [1]", "result": "0.23±0.01"}
    ]},
    {"compound": "pertussis toxin [reference compound]", "values": [
      {"measurement": "GIRK current", "setting": "FLAG-MOR [2]", "result": "3.3±6.8", "unit": "pA"},
      {"measurement": "fraction derm A594 remaining after 3 min", "setting": "FLAG-MOR [3]; β-arr 1/2 k.o. MEF cells, pertussis toxin 100 ng/ml overnight, no ME", "result": "0.12±0.02"}
    ]},
    {"compound": "C[C@@H](NC(=O)[C@@H](N)Cc1ccc(O)cc1)C(=O)N[C@@H](Cc1ccccc1)C(=O)NCC(=O)N[C@@H](Cc1ccc(O)cc1)C(=O)N1CCC[C@H]1C(=O)N[C@@H](CCCCN)C(=O)N[C@@H](CSC1CC(=O)N(CCCCCNC(=O)c2ccc(C3=c4cc5c(cc4Oc4cc6c(cc43)C(CS(=O)(=O)[O-])=CC(C)(C)N6C)=[N+](C)C(C)(C)C=C5CS(=O)(=O)O)c(C(=O)O)c2)C1=O)C(N)=O", "note": "(stereo partly drawn) [derm A594, dermorphin Alexa 594] (H-Y[dA]FGYPKC(X1)-NH2; N-terminus assumed)", "values": [
      {"measurement": "Hill slope of steady state binding", "setting": "FLAG-MOR [4]; after ME 30 µM 2 hrs", "result": "1.03±0.3"},
      {"measurement": "Hill slope of steady state binding", "setting": "FLAG-MOR [4]; untreated live cells", "result": "0.95±.02"},
      {"measurement": "kon", "setting": "FLAG-MOR [5]", "result": 353000, "unit": "M⁻¹ s⁻¹"},
      {"measurement": "decrease of koff after ME treatment", "setting": "FLAG-MOR [5]; ME 30 µM 2 hr vs untreated", "result": "approximately 6 fold"},
      {"measurement": "decrease of kon after ME treatment", "setting": "FLAG-MOR [5]; ME 30 µM 2 hr vs untreated", "result": "about 40%"},
      {"measurement": "average time constant of association", "setting": "FLAG-MOR [5]; ME treated cells (30 µM 2 hr)", "result": "51.5 ± 7.8", "unit": "s"},
      {"measurement": "average time constant of association", "setting": "FLAG-MOR [5]; untreated cells", "result": "11.4 ± 0.4", "unit": "s"},
      {"measurement": "time constant of dissociation from the receptor", "setting": "FLAG-MOR [5]; live cells", "result": "~10", "unit": "s"},
      {"measurement": "koff", "setting": "FLAG-MOR [5]; read-out: koff (intercept of linear fit)", "result": 0.011, "unit": "s⁻¹"},
      {"measurement": "relative amount of derm A594 bound after 1 min (R/G)", "setting": "FLAG-MOR [6]", "result": "0.95±0.08"},
      {"measurement": "fraction derm A594 remaining after 3 min", "setting": "FLAG-MOR [3]; WT MEF cells, untreated", "result": "0.09±0.01"},
      {"measurement": "fraction derm A594 remaining after 3 min", "setting": "FLAG-MOR [3]; β-arr 1/2 k.o. MEF cells, untreated", "result": "0.13±0.02"}
    ]}
  ]
}
